Measured values as given in article PMC6588349 (eLife, 2019).

How the values were obtained:
[1] = biological target: T1, isolated mGluR2 TMD (SNAP-mGluR2-TMD) (Rattus norvegicus, UniProt P31421); test: GIRK activation assay, whole cell patch clamp, isolated mGluR2 TMD; format: cell-based; conditions: normalized to saturating LY48
T1 construct: mGluR2-TMD (rat) starts at Q558; expressed in transfected cells; host or cells: HEK 293T
Method: Cells were cultured in DMEM with 5% FBS on poly-L-lysine-coated glass coverslips. DNA plasmids were transfected into cells using Lipofectamine 3000 (Thermo Fisher). […] For single-molecule pulldown (SiMPull) experiments, cells were transfected with 0.7 μg DNA of HA and SNAP-tagged receptor constructs, unless otherwise noted. For FRET experiments, cells were transfected with either SNAP-tagged constructs at 0.5–0.7 μg of DNA/well or SNAP and CLIP-tagged constructs at a ratio of 1:2 with 0.3 μg of SNAP DNA/well.
Whole-cell patch clamp recordings from single isolated cells were performed 24–36 hr after transfection in a high-potassium extracellular solution containing (in mM): 120 KCl, 29 NaCl, 1 MgCl2, 2 CaCl2 and 10 HEPES, pH 7.4. Cells were voltage clamped to −60 mV using an Axopatch 200B amplifier (Axon Instruments) and membrane currents were recorded. Glass pipettes of resistance between 3 and 8 MΩ were filled with intracellular solution containing (in mM): 140 KCl, 10 HEPES, 3 Na2ATP, 0.2 Na2GTP, 5 EGTA and 3 MgCl2, pH 7.4. Data were acquired with a 2 kHz acquisition rate and filtered with the amplifier 4-pole Bessel filter at 1 kHz. Drugs were prepared in extracellular solution and applied using a gravity-driven perfusion system. Data were analyzed with Clampfit (Molecular Devices) and Prism (GraphPad). Data for all conditions came from at least two separate transfections.

SNAP-mGluR2-TMD = biological target: T2, SNAP-mGluR2-TMD (Rattus norvegicus, UniProt P31421); test: Single-molecule pulldown (SiMPull) photobleaching step counting, SNAP-mGluR2-TMD; conditions: 10 µM LY48, 1 µM BINA, 10 µM Ro 64, 1 µM MNI 137
T2 construct: mGluR2-TMD (rat) starts at Q558; expressed in transfected cells; host or cells: HEK 293T
T2 sequence (P31421 558-872 limits assumed): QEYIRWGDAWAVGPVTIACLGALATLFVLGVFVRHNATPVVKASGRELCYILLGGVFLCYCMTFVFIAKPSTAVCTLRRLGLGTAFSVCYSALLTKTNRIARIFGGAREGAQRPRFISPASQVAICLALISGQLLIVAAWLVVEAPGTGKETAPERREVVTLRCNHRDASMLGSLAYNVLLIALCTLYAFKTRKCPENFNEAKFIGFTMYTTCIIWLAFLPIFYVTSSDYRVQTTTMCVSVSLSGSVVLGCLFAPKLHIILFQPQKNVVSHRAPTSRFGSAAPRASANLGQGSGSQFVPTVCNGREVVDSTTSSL
Source text: Photobleaching step analysis of individual complexes allows for precise determination of receptor stoichiometry and, unlike FRET or BRET-based methods, this assay is not sensitive to conformation or relative fluorophore orientation. […] However, this work relied on GFP-tagged receptors which leads to a lysate that contains both surface-targeted and intracellular receptors, potentially including immature or partially degraded protein that can confound analysis.
To restrict our analysis to surface-targeted receptors, we expressed N-terminally SNAP-tagged receptor variants and labeled them with membrane-impermeable fluorophores.
To test this, we incubated SNAP-mGluR2-TMD expressing cells and lysates with PAMs or NAMs during the SiMPull experiment.
Briefly, to prevent non-specific sticking of proteins, flow chambers were prepared with mPEG-passivated glass slides and coverslips doped with ~1% biotinylated mPEG, as previously described. Prior to each experiment, chambers were incubated with 0.2 mg/mL NeutrAvidin (ThermoFisher) for 2 min followed by 10 nM of a biotinylated anti-HA antibody (abcam ab26228) for 20–30 min. After each conjugation step, the chambers were washed with T50 buffer (50 mM NaCl, 10 mM Tris, pH 7.5).
After labeling, cells were dissociated from coverslips by incubating with Ca^2+-free PBS for 20 min followed by gentle pipetting. […] Following 1 hr of lysis at 4°C, cells were centrifuged at 16,000 g for 20 min before the supernatant was collected and maintained on ice. The cell lysate was diluted in a 0.1% detergent dilution buffer to obtain sparse immobilization of labeled protein on the passivated slide. After obtaining an optimal density of immobilized protein, the flow chamber was washed with dilution buffer to remove unbound protein. For SiMPull experiments with PAMs and NAMs, drugs were added to cells during the dissociation step (after dye labeling), and maintained throughout the cell lysis and entire experiment.
Single molecules were imaged with a 100x objective on an inverted microscope (Olympus IX73) in total internal reflection fluorescence (TIRF) mode. Images were taken with an scMOS camera (Hamamatsu ORCA-Flash4v3.0) at 20 Hz with 50 ms exposures. […] Multiple independent experiments were performed for each condition. […] A SNAP-tag labeling efficiency of ~80% was used to calculate the proportion of dimers and monomers. Occasional co-localization of two proteins within a diffraction limited spot along with antibody and NeutrAvidin bivalency both make a small contribution to >1 step photobleaching, leading to a background % two-step bleaching level of ~5–10%. All data were produced from at least two separate transfections/protein preparations for each condition.

[2] = Gramicidin-based fluorescence quench assay for changes of lipid bilayer properties (LUVs); format: physicochemical; conditions: 1 to 10 µM
Source text: To further probe this, we used a fluorescence quench assay for drug-induced changes of lipid bilayer properties ([Ingólfsson and Andersen, 2010]) (Figure 6—figure supplement 3A; see Materials and methods), in which changes in gramicidin channel function is used as a reporter of membrane modification. […] The persistent BINA response is thus consistent with a model where BINA readily partitions into the plasma membrane lipid bilayer (and possibly other lipidic compartments).
The gramicidin-based fluorescence assay has been described previously ([Ingólfsson and Andersen, 2010]). In brief, large unilamellar vesicles (LUVs), loaded with intravesicular ANTS were prepared from DC22:1PC and gramicidin (weight ratio 1000:1, corresponding to a ~ 2000:1 molar ratio) using freeze-drying, extrusion and size-exclusion chromatography; the final lipid concentration was 4–5 mM; the suspension was stored in the dark at 12.5°C for a maximum of 7 days. […] Before use, the LUV-ANTS stock was diluted to 200–250 μM lipid with NaNO3 buffer (140 mM NaNO3, 10 mM HEPES, pH 7).
The NAMs and PAMs (dissolved in DMSO) or DMSO (as control) were added to a LUV-ANTS sample and equilibrated at 25°C in the dark for 10 min. before the mixture was loaded into a stopped-flow spectrofluorometer (Applied Photophysics SX.20, Leatherhead, UK) and mixed with either NaNO3 buffer or TlNO3 buffer; Tl^+ (thallous ion) is a gramicidin channel-permeant quencher of the ANTS fluorescence. Samples were excited at 352 nm and the fluorescence signal above 455 nm was recorded in the absence (four successive trials) or presence (nine successive trials) of the quencher. All the NAM and PAM derivatives fluoresce to varying degrees and addition of these drugs to LUVs in control experiments without gA or Tl^+ increased the fluorescence signal, and each signal was normalized to account for the compound's fluorescence. […] The quench rate (Rate), the rate of Tl^+ influx, was determined at 2 ms: Rate=β/τ0⋅(t/τ0)^β−1|2ms […]

T1 sequence (P31421 558-872 limits assumed): as above

| EC50 [1] | higher order complexes with >3 bleaching steps in presence of drug (SNAP-mGluR2-TMD) | two-step photobleaching events of SNAP-mGluR2-TMD in presence of drug (SNAP-mGluR2-TMD) | changes in gramicidin channel function (membrane properties) [2] | SMILES |
| --- | --- | --- | --- | --- |
| 140 ± 10 nM | < 10% | 40–45% | – | COc1ccccc1Oc1ccc(N(Cc2cccnc2)S(=O)(=O)CC(F)(F)F)cc1 [LY48] |
| – | < 10% | 40–45% | do not alter membrane properties | N#Cc1cc(C2=Nc3ccc(Br)cc3NC(=O)C2)ccn1 [MNI 137] |
| – | < 10% | 40–45% | do not alter membrane properties | Clc1cccc(Cl)c1/C(=C/n1cncn1)OC1CCCCCC1 [Ro 64] |
